Measurements: patent US20220249525A1, “Fatty Acid Compounds for Prevention and Treatment of Neurodegenerative Disorders” (T OMEGA AS, priority 2019, published 2022)
Where a name gives a salt, the structure may show the parent alone.

What was measured:
[1] = test system: HuH-7 cells; experiment: Gene expression (qPCR) in HuH-7 cells treated with fatty acids; type: cell-based
Protocol: (§1) Cells from both cell lines were obtained and counted as previously mentioned. After cell counting, the cells were seeded to 6-well plates (Corning Inc., catalog no. 353046) with a density dependent on total treatment time and cell line. The cells were seeded in 3-4 ml medium and placed in the incubator for approximately 24 hours for the cells to settle. Following the 24 hours, the FAs were thawed in room temperature, the cell medium was aspirated off, and a new, exact volume was added to each well, depending on the final concentration of FA or control. Before the addition of FAs, the FA-solutions were mixed by pipetting up and down several times. The FAs were then added with an exact volume to the wells giving a total volume of 3 ml or 4 ml depending on treatment time, yielding the target concentration of FA in well. After the addition of FA to one well, the solution was mixed by carefully rotating the 6-well plate. The same procedure was followed for all the wells, differing only in FA or control added, and the ratio of medium and FA depending on treatment dose. During cell treatment, the plates were incubated under the same conditions as previously mentioned. PBS was placed between the wells to reduce liquid-loss due to evaporation. After treatment and incubation for 24-96 hours, the procedure of RNA purification was followed.
(§2) Purification of total RNA from treated HuH-7- and SH-SY5Y cells was done following the protocol “Purification of Total RNA from Animal Cells using Spin Technology” described in the RNeasy Mini Handbook (fourth edition, June 2012) with some modifications. The RNeasy Mini Kit was used.
(§3) Frozen RNA samples were thawed on ice or used directly after the RNA purification protocols. All samples from the cell lines were diluted with nuclease-free water to 50 ng/μl, and all samples from brain tissue were diluted to 200 ng/μl prior to cDNA synthesis. UHRR and UMRR were initially at 50 ng/μ1 (table 4.3.). The reactants (table 4.6.) used in the RT-mix were thawed on ice and mixed following the protocol “High Capacity cDNA Reverse Transcription Kits” (Applied Biosystems, June 2010) (153). From the master mix containing the total volume of the mixed reactants, 10 μl was added to each sample tube placed on ice already containing 10 μl of the diluted RNA. The samples with a total volume of 20 μl were mixed by pipetting up and down several times. In addition, samples without reverse transcriptase (−RT) were made, using nuclease-free water to replace the RT volume. The tubes were placed on ice until they were loaded to the GeneAmp* PCR system 2700 (Applied Biosystems, Foster City, Calif., USA) and the program described in table 4.7. was used. After the procedure, all samples were diluted to 10 ng/μl by the addition of nuclease-free water and placed for storage at 4° C. until further use.
The mix for the samples (and standard curves) was made using TaqMan Gene Expression Master Mix (table 4.8.), probes specific for the genes in question, and nuclease-free water. −RT and NTC samples were always used in the experiments. The master mix for each gene was made according to table 4.8. and added to tubes together with the cDNA. The tubes were vortexed and centrifuged briefly before the samples were added to a 384-well plate (Sarstedt AG & CO, catalog no. 72.1984.202) with the use of a pipette. For every sample, three parallels of 9 μl were used. After the addition of all the samples to the plate, a plastic cover (Sarsted AG & CO, catalog no. 95.1994) was used to seal the plate before centrifuging it for 2 minutes at 700 g. The prepared samples were placed in the PCR cycler (ABI PRISM 7900HT Sequence Detection System, Applied Biosystems) for quantification, using the 9600 Emulation Thermal Cycler Protocol (table 4.9.) in the software SDS 2.3 (Applied Biosystems, Foster City, Calif., USA).
(§4) When performing the qPCR reactions, all samples were analyzed in triplicates, and the mean value was used in further analysis. […]

[2] = test system: SH-SY5Y cells; experiment: WST-1 cell viability assay in SH-SY5Y cells; type: cell-based; settings: 4 days
Protocol: (§5) The fatty acids (FAs) TTA, tr-TTA, N-TTA, tr-N-TTA and (PA) were complexed with FBS following the same procedure, differing only in final stock concentration, due to variation in solubility. Approximately 0.07 g of FA was weighed in a 10 ml sterile serum tube (BD Vacutainer®, catalog no. 368430) and dissolved in sterile filtrated 0.1 M sodium hydroxide (NaOH) of a volume giving 25 mM FA, controls without FA were made, containing only NaOH and FBS. A syringe (Sterican®, catalog no. 4657577) was pierced through the rubber cap of the serum tube, and the tube was placed in an 80° C. water bath until the FAs were dissolved. Each FA-solution was then diluted in inactivated FBS to stock concentration 1 mM (N-TTA, tr-N-TTA), and 2 mM by adding the FA to a volume of 100% FBS after heating the FBS to 45° C. in a water bath. The transfer of FA to FBS had to be executed controlled and swiftly to avoid the formation of precipitates. If any precipitates in the solution were visible, the FA and a new volume of FBS were reheated, and the procedure performed again. Following successful complexation, the stock solutions were stored at −20° C. in 1 ml aliquots (CryoPure tube, Sarstedt AG & Co, Nümbrecht, Germany).
(§6) The WST-1 cell proliferation assay was performed using the kit from Roche (table 4.2.) and its accompanying procedure (version 16, February 2011) (134). The number of cells seeded to each well in the 96-well plates (Corning Inc., catalog no. 353072) varied depending on the treatment time and cell type (table 3.).
(§7) Cell suspension and medium were then transferred to each well in a volume of 100 μl in total. Subsequently, the plates were incubated for 24 hours to make the cells settle. The next day, 100 μl with FA complexed with FBS or diluted in DMSO was added to row A or B in the 96-well plate to give a defined concentration. The solution was then mixed with a pipette, and 100 μl of the medium with FA was transferred to the next well in the same column, mixed by pipetting up and down at least five times before 100 μl was transferred again to the next well in the column. This procedure was repeated until the second last, or last well in each column was reached, making a series of two-fold dilution of the FAs in the cell medium. Two parallels were performed for every treatment per run. After the addition of FAs, the plates were incubated for 24-96 hours depending on the length of the treatment.
Following the FA-treatment, the cells were studied under a microscope to ensure that visual observations matched the measured absorbance and cell activity in the assay. Subsequently, 10 μl WST-1 reagent was added to each well, and the plates were incubated for 3 hours. Due to high activity in the HuH-7 cell line, the WST-1 reagent was diluted 1:1 with PBS. Before the measurement of absorbance, the plates were placed on a shaker for 1 minute ensuring thoroughly mixing of the wells. The plates were then put straight into the spectrophotometer (SpectraMax Plus 384 Microplate Reader, Molecular Devices Corporation, San Jose, Calif., USA) to perform the measurements. […] The absorbance of the samples was measured at 450 nm, and the reference wavelength was set to 650 nm. For each well, the measured absorption at 650 nm was subtracted from the absorption at 450 nm. The measured absorbance for the treated cells was then compared to the controls (blank) containing only cells and growth medium.

[3] = test system: HuH-7 cells; experiment: WST-1 cell viability assay in HuH-7 cells; type: cell-based; settings: 2 days
Protocol: as §5, §6, §7
Following the FA-treatment, the cells were studied under a microscope to ensure that visual observations matched the measured absorbance and cell activity in the assay. Subsequently, 10 μl WST-1 reagent was added to each well, and the plates were incubated for 3 hours. Due to high activity in the HuH-7 cell line, the WST-1 reagent was diluted 1:1 with PBS. Before the measurement of absorbance, the plates were placed on a shaker for 1 minute ensuring thoroughly mixing of the wells. The plates were then put straight into the spectrophotometer (SpectraMax Plus 384 Microplate Reader, Molecular Devices Corporation, San Jose, Calif., USA) to perform the measurements. The accompanying software was used (SoftMax Pro, Molecular Devices Corporation, San Jose, Calif., USA) to obtain the results. The absorbance of the samples was measured at 450 nm, and the reference wavelength was set to 650 nm. For each well, the measured absorption at 650 nm was subtracted from the absorption at 450 nm. The measured absorbance for the treated cells was then compared to the controls (blank) containing only cells and growth medium.

[4] = test system: SH-SY5Y cells; experiment: Gene expression (qPCR) in SH-SY5Y cells treated with fatty acids; type: cell-based
Protocol: as §1, §2, §3
The mix for the samples (and standard curves) was made using TaqMan Gene Expression Master Mix (table 4.8.), probes specific for the genes in question, and nuclease-free water. −RT and NTC samples were always used in the experiments. […] The prepared samples were placed in the PCR cycler (ABI PRISM 7900HT Sequence Detection System, Applied Biosystems) for quantification, using the 9600 Emulation Thermal Cycler Protocol (table 4.9.) in the software SDS 2.3 (Applied Biosystems, Foster City, Calif., USA).
as §4

[5] = test system: MOLM-13 human acute leukemia cells; experiment: WST-1 viability of MOLM-13 cells; type: cell-based; settings: for Abs450 nm (WST-1 viability): complexed to BSA
Protocol: MOLM-13 suspension cells were diluted and added to 96-well plates (15.000 cells/well).
The modified fatty acids TTA, tr-TTA, TDG (TGH) and tr-TDG (tr-TGH) were complexed to bovine serum albumin (BSA), and 10-fold dilutions of the fatty acids or BSA control were added to the wells in duplicate. Two plates were run in parallel, and WST-1 was added to the cells after 48 (plate 1) and 72 hours (plate 2). Absorbance at 450 nm measured to assess viability of the cells.

[6] = 4 week high-fat diet study, body weight, adipose tissue, plasma glucose and cholesterol; type: in vivo, C57BL/6 mice; settings: mice, N-TTA 750 mg/kg or triple-N-TTA 350 mg/kg body weight, 4 weeks
Protocol: This animal study was conducted according to the Guidelines for the Care and Use of Experimental Animals, and the protocol was approved by the Norwegian Food Authorities. 7 to 8-weeks old male C57BL/6 mice, were obtained from Janvier Labs. After one week of acclimatization, they were divided into 3 groups of 7 animals. One group was fed a control high-fat (25 w/v) diet while the two remaining groups were fed a high-fat diet supplemented with either N-TTA (750 mg/kg body weight) or triple-N-TTA (350 mg/kg body weight). After 4 weeks of feeding, the mice were anaesthetized with Isofluorane (Forane, Abbot Laboratories Ltd, Illinois, USA) inhalation under fasting conditions, and blood and liver samples were collected. […]
Glucose and lipids in plasma was measured on the Hitachi 917 system (Roche Diagnostics, GmbH, Mannheim, Germany) using kits from Roche Diagnostics or DiaSys.

[7] = 25 μM dissolved in DMSO, 4 days
[8] = 125 μM complexed with FBS, 24 hours

CCCCCCCCCCCCCCCC(=O)O [PA]
relative expression of CPT-2 compared to control [1, 7]: 0.65 | relative expression of UCP3 compared to untreated cells [1, 7]: approximately 0.5 | increase in CPT-2 expression relative to control ([1]; 125 μM complexed with FBS, 1 day): 1.5 fold | increase in CPT-2 expression relative to control ([1]; 125 μM complexed with FBS, 2 days): did not result in increased expression | increase in CPT-2 expression relative to control ([1]; 125 μM complexed with FBS, 4 days): did not result in increased expression | increase in relative expression of UCP3 ([1]; 125 μM complexed with FBS, all treatment periods (1, 2, 4 days)): did not induce any changes | WST-1 activity ([2]; 500 μM): the same as the control | WST-1 activity ([2]; concentrations up to 250 μM): stimulated activity | WST-1 activity compared to untreated cells ([3]; 62.5 μM, complexed with FBS): ~150% | relative gene expression of CPT-2 vs control [4, 8]: No change | relative gene expression of CYCS vs control [4, 8]: No change | relative gene expression of TFAM vs control [4, 8]: No change | relative gene expression of UCP3 vs control [4, 8]: No change | CYCS gene expression vs FBS-control ([4]; additional treatments, 4 days, reference 18 S): small decrease

CC#CCCCCCCCCCCCNCC(=O)O [tr-N-TTA, Tetradec-12-yn-1-ylglycine hydrochloride]
WST-1 activity compared to untreated cells ([2]; 500 μM): 84% | WST-1 activity compared to untreated cells ([2]; all concentrations except 500 μM): ~100% | WST-1 activity compared to untreated cells ([3]; 16 μM, complexed with FBS): 109% | WST-1 activity compared to no treatment ([3]; 500 μM): ~90% | WST-1 activity compared to untreated cells ([3]; all concentrations): around 100% | Abs450 nm (WST-1 viability) ([5]; 48 hours, 0.0625 mM): 0.4964 | Abs450 nm (WST-1 viability) ([5]; 48 hours, 0.125 mM): 0.1452 | Abs450 nm (WST-1 viability) ([5]; 48 hours, 0.25 mM): 0.1679 | Abs450 nm (WST-1 viability) ([5]; 48 hours, 0.5 mM): 0.2177 | Abs450 nm (WST-1 viability) ([5]; 48 hours, 1 mM): 0.2833 | Abs450 nm (WST-1 viability) ([5]; 48 hours, 2 mM): 0.5009 | Abs450 nm (WST-1 viability) ([5]; 72 hours, 0.03125 mM): 0.3769 | Abs450 nm (WST-1 viability) ([5]; 72 hours, 0.0625 mM): 0.4452 | Abs450 nm (WST-1 viability) ([5]; 72 hours, 0.125 mM): 0.13 | Abs450 nm (WST-1 viability) ([5]; 72 hours, 0.25 mM): 0.1384 | Abs450 nm (WST-1 viability) ([5]; 72 hours, 0.5 mM): 0.1964 | Abs450 nm (WST-1 viability) ([5]; 72 hours, 1 mM): 0.366 | Abs450 nm (WST-1 viability) ([5]; 72 hours, 2 mM): 0.426 | toxicity to leukemic cells ([5]; MOLM-13, compared with TTA and tr-TTA): toxic to leukemic cells at a lower concentration than TTA and tr-TTA | LDL cholesterol (plasma) [6]: reduced | body weight gain vs high-fat control diet [6]: significantly lower | cholesterol esters (plasma) [6]: reduced | epididymal white adipose tissue depot [6]: reduced in size | free cholesterol (plasma) [6]: reduced | perirenal white adipose tissue depot [6]: reduced in size | total cholesterol (plasma) [6]: reduced | blood glucose vs high-fat control diet ([6]; fasting): significantly lower
